Data: US20060173015A1, “Cyclohexyldiamines as selective alpha 1a/1d adrenoreceptor antagonists for the treatment of benign prostatic hypertrophy and lower urinary tract symptoms” (priority 2004, published 2006)

Experiments:
[1] = tested on: Prostatic Intraurethral Pressure (IUP); assay: Phenylephrine-induced prostatic IUP in an anesthetized canine model; type: in vivo; conditions: anesthetized dog
Experimental: In-Vivo Evaluation of α1-Adrenergic Antagonists on Prostatic Intraurethral Pressure (IUP) and Mean Arterial Pressure (MAP) in an Anesthetized Canine Model
An anesthetized dog was fitted with a balloon catheter for the measurement of changes in prostatic IUP and with a non-invasive blood pressure (NIBP) cuff for determination of MAP.
The pressor effects of challenge doses (i.v.) of the α-adrenergic agonist phenylephrine upon IUP and MAP were measured before and at various time points after a single dose (i.v.) of an α-adrenergic antagonist test compound (Compound 69) of the present invention.
Each treatment group was dosed with a test compound (0.01, 0.03, 0.1 and 0.5 mg/kg) in four separate experiments. The first challenge dose of phenylephrine was administered 30 mins prior to the test compound dose and at 30 min intervals thereafter for a total time period of 5 hrs (i.e at time minus 30 mins, time plus 30 mins, 1 hr, 1.5 hrs, 2 hrs, 2.5 hrs, 3 hrs, 3.5 hrs, 4 hrs, 4.5 hrs and 5 hrs).
The animals were fasted overnight, anesthetized with propofol (4 mg/kg IV or to effect), then intubated and anesthesia maintained using inhalation isoflurane (1-2% in oxygen at a flow rate of 2 l/min) with animals breathing spontaneously.
(§1) A 7F Fogarty balloon catheter lubricated with a water-soluble jelly was inserted into the urethra and advanced into the bladder (approximately 40 cm). The balloon was inflated with approximately water (0.2 mL). The catheter was slowly withdrawn from the bladder to just past the point of first resistance from the bladder neck in order to position the balloon within the prostatic urethra. The balloon was then inflated to approximately 0.7 mL. The balloon port of the catheter was connected to a Gould Statham pressure transducer, the output of which was connected to the pressure input of a Physio Control VSM1 Patient Monitor.
A test compound was administered via the cephalic vein using an appropriately sized IV catheter (Surflo, Terumo Medical Corporation or equivalent).
(§2) Prior to test compound administration, IUP and MAP responses to an individualized dose of phenylephrine (either 10 or 15 μg/kg IV, depending on the individual animal's response) was repeated 2 to 3 times to establish a baseline response. After test compound administration, the individualized phenylephrine dose was administered to each animal at 30 minute intervals over a period of 5 hours.
(§3) Data for phenylephrine-induced changes in IUP and MAP were tabulated for each treatment group and each experiment. A mean value and standard deviation for the phenylephrine-induced changes to the effect of a test compound on IUP and MAP at each dose was calculated and tabulated for each treatment group over the length of the 5.5 hour study.

IUP = assay: Phenylephrine-induced IUP in a conscious canine model; type: in vivo; conditions: conscious dog
Experimental: In-Vivo Evaluation of α1-Adrenergic Antagonists on IUP and MAP in a Conscious Canine Model
An anesthetized dog was fitted with a balloon catheter for the measurement of changes in prostatic IUP and with a number of implanted pressure transducers and telemetry transmitters for measuring MAP.
The pressor effects of challenge doses […] of the α-adrenergic agonist phenylephrine upon IUP and MAP were measured before and at various time points after a single dose (p.o.) of an α-adrenergic antagonist test compound (Compound 69) of the present invention.
Each treatment group was dosed with a test compound (0.1, 0.3, 1.0 and 3.0 mg/kg) in four separate experiments. The first challenge dose of phenylephrine for each treatment group was administered at the time of the test compound dose (time 0). The value for the first challenge dose represents an average of up to three challenge doses administered prior to time 0.
Subsequent challenge doses for all treatment groups were administered at 30 min. then one hour and two hours after time 0.
The final challenge doses for the 0.1 and 0.3 mg/kg groups were administered at four and six hours after time 0. The final challenge doses for the 1.0 mg/kg group were administered at four, six and eight hours after time 0. The final challenge doses for the 3.0 mg/kg group were administered at four, six, 12 and 24 hours after time 0.
as §1
A test compound was administered via the cephalic or saphenous vein using an appropriately sized IV catheter (Surflo, Terumo Medical Corporation or equivalent).
as §2, with “at predetermined” for “at 30 minute”, “of up to 24” for “of 5”
as §3, with “the” for “the 5.5 hour”

SMILES: COc1ccc(S(=O)(=O)N[C@H]2CC[C@@H](N3CCN(c4ccccc4OCC(F)(F)F)CC3)CC2)cc1OC [Cpd 69, 3,4-Dimethoxy-N-cis-(4-{4-[2-(2,2,2-trifluoro-ethoxy)-phenyl]-piperazin-1-yl}-cyclohexyl)-benzenesulfonamide]
- IUP, normalized % of baseline (mean) ([1]; 0.01 mg/kg i.v., 0 hrs (baseline)): 100%
- IUP, normalized % of baseline (mean) ([1]; 0.01 mg/kg i.v., 0.5 hrs after dose): 78.1%
- IUP, normalized % of baseline (mean) ([1]; 0.01 mg/kg i.v., 1 hrs after dose): 81.9%
- IUP, normalized % of baseline (mean) ([1]; 0.01 mg/kg i.v., 2 hrs after dose): 83.6%
- IUP, normalized % of baseline (mean) ([1]; 0.01 mg/kg i.v., 3 hrs after dose): 83.3%
- IUP, normalized % of baseline (mean) ([1]; 0.01 mg/kg i.v., 4 hrs after dose): 83.0%
- IUP, normalized % of baseline (mean) ([1]; 0.01 mg/kg i.v., 5 hrs after dose): 84.5%
- IUP, normalized % of baseline (mean) ([1]; 0.03 mg/kg i.v., 0 hrs (baseline)): 100%
- IUP, normalized % of baseline (mean) ([1]; 0.03 mg/kg i.v., 0.5 hrs after dose): 64.8%
- IUP, normalized % of baseline (mean) ([1]; 0.03 mg/kg i.v., 1 hrs after dose): 64.8%
- IUP, normalized % of baseline (mean) ([1]; 0.03 mg/kg i.v., 1.5 hrs after dose): 70.8%
- IUP, normalized % of baseline (mean) ([1]; 0.03 mg/kg i.v., 2 hrs after dose): 71.1%
- IUP, normalized % of baseline (mean) ([1]; 0.03 mg/kg i.v., 2.5 hrs after dose): 79.1%
- IUP, normalized % of baseline (mean) ([1]; 0.03 mg/kg i.v., 3 hrs after dose): 81.1%
- IUP, normalized % of baseline (mean) ([1]; 0.03 mg/kg i.v., 3.5 hrs after dose): 81.6%
- IUP, normalized % of baseline (mean) ([1]; 0.03 mg/kg i.v., 4 hrs after dose): 84.8%
- IUP, normalized % of baseline (mean) ([1]; 0.03 mg/kg i.v., 4.5 hrs after dose): 83.5%
- IUP, normalized % of baseline (mean) ([1]; 0.03 mg/kg i.v., 5 hrs after dose): 83.8%
- IUP, normalized % of baseline (mean) ([1]; 0.1 mg/kg i.v., 0 hrs (baseline)): 100%
- IUP, normalized % of baseline (mean) ([1]; 0.1 mg/kg i.v., 0.5 hrs after dose): 39.5%
- IUP, normalized % of baseline (mean) ([1]; 0.1 mg/kg i.v., 1 hrs after dose): 48.4%
- IUP, normalized % of baseline (mean) ([1]; 0.1 mg/kg i.v., 1.5 hrs after dose): 56.3%
- IUP, normalized % of baseline (mean) ([1]; 0.1 mg/kg i.v., 2 hrs after dose): 61.3%
- IUP, normalized % of baseline (mean) ([1]; 0.1 mg/kg i.v., 2.5 hrs after dose): 67.1%
- IUP, normalized % of baseline (mean) ([1]; 0.1 mg/kg i.v., 3 hrs after dose): 69.9%
- IUP, normalized % of baseline (mean) ([1]; 0.1 mg/kg i.v., 3.5 hrs after dose): 75.2%
- IUP, normalized % of baseline (mean) ([1]; 0.1 mg/kg i.v., 4 hrs after dose): 78.8%
- IUP, normalized % of baseline (mean) ([1]; 0.1 mg/kg i.v., 4.5 hrs after dose): 74.2%
- IUP, normalized % of baseline (mean) ([1]; 0.1 mg/kg i.v., 5 hrs after dose): 77.3%
- IUP, normalized % of baseline (mean) ([1]; 0.5 mg/kg i.v., 0 hrs (baseline)): 100%
- IUP, normalized % of baseline (mean) ([1]; 0.5 mg/kg i.v., 0.5 hrs after dose): 17.4%
- IUP, normalized % of baseline (mean) ([1]; 0.5 mg/kg i.v., 1 hrs after dose): 16.1%
- IUP, normalized % of baseline (mean) ([1]; 0.5 mg/kg i.v., 1.5 hrs after dose): 27.0%
- IUP, normalized % of baseline (mean) ([1]; 0.5 mg/kg i.v., 2 hrs after dose): 29.1%
- IUP, normalized % of baseline (mean) ([1]; 0.5 mg/kg i.v., 2.5 hrs after dose): 36.1%
- IUP, normalized % of baseline (mean) ([1]; 0.5 mg/kg i.v., 3 hrs after dose): 38.8%
- IUP, normalized % of baseline (mean) ([1]; 0.5 mg/kg i.v., 3.5 hrs after dose): 45.5%
- IUP, normalized % of baseline (mean) ([1]; 0.5 mg/kg i.v., 4 hrs after dose): 46.4%
- IUP, normalized % of baseline (mean) ([1]; 0.5 mg/kg i.v., 4.5 hrs after dose): 48.0%
- IUP, normalized % of baseline (mean) ([1]; 0.5 mg/kg i.v., 5 hrs after dose): 54.4%
- IUP, normalized % of baseline (mean) (IUP; 0.1 mg/kg p.o., 0 hrs (baseline)): 100%
- IUP, normalized % of baseline (mean) (IUP; 0.1 mg/kg p.o., 0.5 hrs after dose): 87.3%
- IUP, normalized % of baseline (mean) (IUP; 0.1 mg/kg p.o., 1 hrs after dose): 78.3%
- IUP, normalized % of baseline (mean) (IUP; 0.1 mg/kg p.o., 2 hrs after dose): 78.8%
- IUP, normalized % of baseline (mean) (IUP; 0.1 mg/kg p.o., 4 hrs after dose): 82.5%
- IUP, normalized % of baseline (mean) (IUP; 0.1 mg/kg p.o., 6 hrs after dose): 86.5%
- IUP, normalized % of baseline (mean) (IUP; 0.3 mg/kg p.o., 0 hrs (baseline)): 100%
- IUP, normalized % of baseline (mean) (IUP; 0.3 mg/kg p.o., 0.5 hrs after dose): 63.0%
- IUP, normalized % of baseline (mean) (IUP; 0.3 mg/kg p.o., 1 hrs after dose): 47.0%
- IUP, normalized % of baseline (mean) (IUP; 0.3 mg/kg p.o., 2 hrs after dose): 51.1%
- IUP, normalized % of baseline (mean) (IUP; 0.3 mg/kg p.o., 4 hrs after dose): 70.0%
- IUP, normalized % of baseline (mean) (IUP; 0.3 mg/kg p.o., 6 hrs after dose): 84.4%
- IUP, normalized % of baseline (mean) (IUP; 1.0 mg/kg p.o., 0 hrs (baseline)): 100%
- IUP, normalized % of baseline (mean) (IUP; 1.0 mg/kg p.o., 0.5 hrs after dose): 32.9%
- IUP, normalized % of baseline (mean) (IUP; 1.0 mg/kg p.o., 1 hrs after dose): 20.6%
- IUP, normalized % of baseline (mean) (IUP; 1.0 mg/kg p.o., 2 hrs after dose): 28.6%
- IUP, normalized % of baseline (mean) (IUP; 1.0 mg/kg p.o., 4 hrs after dose): 49.0%
- IUP, normalized % of baseline (mean) (IUP; 1.0 mg/kg p.o., 6 hrs after dose): 66.3%
- IUP, normalized % of baseline (mean) (IUP; 1.0 mg/kg p.o., 8 hrs after dose): 70.4%
- IUP, normalized % of baseline (mean) (IUP; 3.0 mg/kg p.o., 0 hrs (baseline)): 100%
- IUP, normalized % of baseline (mean) (IUP; 3.0 mg/kg p.o., 0.5 hrs after dose): 5.2%
- IUP, normalized % of baseline (mean) (IUP; 3.0 mg/kg p.o., 1 hrs after dose): 2.2%
- IUP, normalized % of baseline (mean) (IUP; 3.0 mg/kg p.o., 2 hrs after dose): 7.0%
- IUP, normalized % of baseline (mean) (IUP; 3.0 mg/kg p.o., 4 hrs after dose): 17.1%
- IUP, normalized % of baseline (mean) (IUP; 3.0 mg/kg p.o., 6 hrs after dose): 31.6%
- IUP, normalized % of baseline (mean) (IUP; 3.0 mg/kg p.o., 12 hrs after dose): 67.7%
- IUP, normalized % of baseline (mean) (IUP; 3.0 mg/kg p.o., 24 hrs after dose): 93.8%
